Source: patent US20230043428A1, “COMPOSITIONS AND METHODS FOR USE OF CANNABINOIDS FOR NEUROPROTECTION” (INMED PHARMACEUTICALS INC., priority 2019, published 2023)
“And” between values parts separate entries of the source, which are not always exact repeats. Identical values can stand only once. “Also recorded” adds a separate entry of the source.

Legend:
[1] = test system: differentiated 661W cells; assay: MTT assay, cannabinoid cytotoxicity on differentiated 661W cells under atmospheric pressure; type: cell-based, mouse; conditions: 72 hours
Method: (§1) Cell Culture and Differentiation: The mouse 661W (RGC-5) cell line was maintained in DMEM cell culture medium supplemented with 10% FBS and 1% Antibiotic-Antimycotic penicillin/streptomycin (growth medium) at 37° C. in a humidified atmosphere of 5% CO2. To induce neuronal differentiation in 661W cells, culture media was replaced by a growth medium containing 321 nM Staurosporine (STSR), and cells were incubated for 24 hrs at 37° C. in a humidified atmosphere of 5% CO2.
(§2) Compounds and Dosing Formulations: Selected cannabinoids: CBN, CBD, CBGA, CBDA, CBND and Δ^9-THC were procured from Cayman and Toronto Research Chemicals. Ethanol was used as the solvent to prepare 1 and 10 mM stock solutions. Treatment concentrations for CBN were prepared at 0.015, 0.05, 0.15, 0.5, 1.5, 5, 10 and 15 μM. Treatment concentrations at 0.5, 1.5 and 5 μM for other cannabinoids were prepared directly in the control medium (DMEM+5% FBS+1% Antibiotic-Antimycotic) by using appropriate stock solution.
(§3) Evaluation of Cytotoxicity and Neuroprotection: Evaluation of cannabinoid cytotoxicity on differentiated 661W cells under atmospheric pressure was carried out using MTT (3-(4,5-dimethylthiazol-2-yl)-2,5-diphenyltetrazolium bromide) assay. The cells were seeded onto 96-well plates (4,000 cells/well) in DMEM complete medium and allowed to reach ˜70% confluence for 24 hrs. After 24 hours, cell culture medium was replaced by growth medium containing 321 nM Staurosporine (STSR) and incubated for 1 day to induce differentiation into a neuronal phenotype.
(§4) MTT Assay: For the MTT assay, differentiated 661W cells were treated with cannabinoids at various concentrations and processed to determine cytotoxicity. Briefly, 5 mg/mL of methylthiazolyldiphenyl-tetrazolium bromide (Sigma-Aldrich) stock solution was prepared in PBS. Following treatment of cannabinoids for 72 hours, 661W cells were incubated with 20 μL of MTT stock solution in 200 μL DMEM for 2 hours at 37° C. Following subsequent washes with PBS, 200 μL of isopropanol was added to each well, and the resulting change in color from dissolving formazan salt was immediately quantified using spectrophotometer (BMG Labtech) at a wavelength of 570 nm. The data was normalized to Vehicle Control (VC) containing 0.15% ethanol and presented as % Cell Death. The VC (%) at atmospheric pressure was considered as 0% cell death. The results are illustrated in FIG. 1.

[2] = test system: differentiated 661W cells; assay: MTT assay, CBNA on differentiated 661W cells at elevated hydrostatic pressure (~10-25 mmHg); type: cell-based, mouse; conditions: elevated hydrostatic pressure approximately 10 to 25 mmHg; 0.015 to 15 μM; 72 hours
Method: as §4
In a separate study cannabinol-derivative CBNA at 0.015, 0.05, 0.15, 0.5, 1.5, 5, 10, and 15 μM concentrations was placed on differentiated 661W cells in a pressurized chamber where an elevated hydrostatic pressure of ˜10-25 mmHg was maintained for 72 hrs. At the end of incubation, 661W cells were processed for MTT assay to determine cytotoxicity. The results are illustrated in FIG. 6.

[3] = test system: differentiated 661W cells; assay: MTT assay, differentiated 661W cells in pressurized chamber at elevated hydrostatic pressure (approximately 20 to 40 mm Hg); type: cell-based, mouse; conditions: for neuroprotection (Cell Death % vs Normal Pressure Vehicle Control): elevated hydrostatic pressure approximately 20 to 40 mm Hg, 72 hours
Method: as §1, §2, §3, §4
Except where indicated all procedures were performed as described in Example 1. Differentiated 661W cells treated with cannabinoids at the respective concentrations were placed in a pressurized chamber where an elevated hydrostatic pressure of […] was maintained for 72 hrs. At the end of incubation, 661W cells were processed for MTT assay to determine cytotoxicity. The results are illustrated in FIGS. 2-5.

[4] = test system: rat episcleral vein laser photocoagulation model of glaucoma (RGC function); assay: pattern electroretinogram (pERG) in the rat episcleral vein laser photocoagulation model of glaucoma; type: in vivo; conditions: for pERG amplitudes vs baseline (statistical significance): two-way ANOVA, Tukey
Method: The pattern electroretinogram (pERG) amplitude a parameter that measures retinal ganglion cell (RGC) activity was evaluated on the eyes of anesthetized animals. During the pERG recording, the eyes were kept moist with a drop of 2.5% GonioVisc ophthalmic lubricant solution (Hub Pharmaceuticals), which also secured electrical contact between the corneas and ERG electrodes. The ERG electrodes were thin silver/silver-chloride wire rings. One eye was recorded while another eye was mechanically occluded. The occluded eye served as a reference in the ERG recording providing minimal physiological noise, while the ground electrode was placed on the tail. Only the signals from the right eye (OD) were recorded. The pERG stimulus was generated with a gamma-linearized monitor screen yielding vertical sinusoidal pattern of 0.10 cycles per degree of visual angle at viewing distance. The mean luminance of stimulation was 45 lux and contrast between dark and white was 99%. […] Two recordings were performed for each eye. For the pERG analysis, the pERG waveforms were superimposed, checked for consistency and averaged as final pERG response. Baseline pERG responses were recorded at day 0 four days prior to the lasering, and on days 7, 14 and day 21 post-lasering. Initially pERG baseline amplitudes were recorded on the eyes of all animals at baseline. The animals were then randomized into control and treatments groups based on their pERG response.
The following treatment arms were used in the study: • Group 1: Vehicle (0.5% DMSO-PBS) (IVT, day 0, day 7 and day 15) n=11 • Group 2: CBN low dose, 5 μM in 0.05% DMSO-PBS (IVT, day 0, day 7 and day 15) n=13 • Group 3: CBN high dose 50 μM in 0.5% DMSO-PBS (IVT, day 0, day 7 and day 15) n=11 • Group 4: Brimonidine (topical, twice daily at 5 μl per eye, day −3 to day 21) n=14

[5] = Brimonidine topical, twice daily at 5 μl per eye
[6] = Brimonidine topical, twice daily
[7] = CBN high dose, 50 μM, IVT day 0, 7 and 15
[8] = CBN low dose, 5 μM, IVT day 0, 7 and 15

Compound: CCCCCc1cc(O)c2c(c1)OC(C)(CCC=C(C)C)C=C2 (stereo not drawn) [CBC, cannabichromene]
- toxicity when in contact with neurons ([1]; concentration of about 1.5 μM): high toxicity
- toxicity when in contact with neurons ([1]; concentration of about 5 μM): high toxicity

Compound: CCCCCc1cc2c(c(O)c1C(=O)O)-c1cc(C)ccc1C(C)(C)O2 [CBNA, cannabinolic acid]
- neuroprotection (Cell Death % vs Vehicle Control) [2]: statistically significant neuroprotection

Compound: CCCCCc1cc(O)c(C/C=C(\C)CCC=C(C)C)c(O)c1C(=O)O [CBGA]
- neuroprotection (Cell Death % vs Normal Pressure Vehicle Control) ([3]; 0.5 μM, 1.5 μM and 5 μM): absence of significant neuroprotection
- toxicity when in contact with neurons ([1]; concentration of about 0.5 μM): high toxicity
- toxicity when in contact with neurons ([1]; concentration of about 1.5 μM): high toxicity
- toxicity when in contact with neurons ([1]; concentration of about 5 μM): high toxicity

Compound: C=C(C)[C@@H]1CCC(C)=C[C@H]1c1c(O)cc(CCCCC)cc1O [CBD]
- neuroprotection (Cell Death % vs Normal Pressure Vehicle Control) ([3]; 0.5 μM, 1.5 μM and 5 μM): absence of significant neuroprotection
- toxicity when in contact with neurons ([1]; concentration of about 0.5 μM): high toxicity
- toxicity when in contact with neurons ([1]; concentration of about 1.5 μM): high toxicity
- toxicity when in contact with neurons ([1]; concentration of about 5 μM): high toxicity

Compound: Brc1c(NC2=NCCN2)ccc2nccnc12 [Alphagan, Brimonidine]
- pERG amplitudes vs baseline (statistical significance) ([4]; Brimonidine (ALPHAGAN) topical twice daily, follow-up days 14 and 21): did not differ significantly from the baseline
- pERG amplitude (mean ± SEM), BASELINE ([4]; Brimonidine topical, twice daily at 5 μl per eye, day −3 to day 21, baseline): 3.6 ± 0.4 μV
- pERG amplitude (mean ± SEM), DAY 7 [4, 5]: 3.9 ± 0.6 μV
- pERG amplitude (mean ± SEM), DAY 14 [4, 5]: 2.8 ± 0.4 μV
- pERG amplitude (mean ± SEM), DAY 21 [4, 5]: 2.4 ± 0.3 μV
- pERG amplitude reduction compared to baseline value, Day 7 [4, 6]: 9.6%
- pERG amplitude reduction compared to baseline value, Day 14 [4, 6]: −22.8%
- pERG amplitude reduction compared to baseline value, Day 21 [4, 6]: −31.6%

Compound: CCCCCc1cc(O)c2c(c1)OC(C)(C)[C@@H]1CCC(C)=C[C@@H]21 [Δ^9-THC, Δ^9-tetrahydrocannabinol]
- neuroprotection (Cell Death % vs Normal Pressure Vehicle Control) ([3]; 0.5 μM, 1.5 μM and 5 μM): absence of significant neuroprotection
- toxicity when in contact with neurons ([1]; concentration of about 5 μM): high toxicity

Compound: C=C(C)[C@@H]1CCC(C)=C[C@H]1c1c(O)cc(CCCCC)c(C(=O)O)c1O [CBDA, cannabidiolic acid]
- neuroprotection (Cell Death % vs Normal Pressure Vehicle Control) ([3]; 0.5 μM, 1.5 μM and 5 μM): absence of significant neuroprotection
- toxicity when in contact with neurons ([1]; concentration of about 5 μM): high toxicity

Compound: CCCCCc1cc(O)c2c(c1)OC(C)(C)c1ccc(C)cc1-2 [CBN, 6,6,9-trimethyl-3-pentylbenzo[c]chromen-1-ol]
- neuroprotection (Cell Death % vs Normal Pressure Vehicle Control) ([3]; CBN 0.015 to 15 μM, One-Way ANOVA vs VC): statistically significant neuroprotection; also recorded: significant neuroprotective effect
- neuroprotective effect compared with CBD and Δ^9-THC ([3]; elevated pressure conditions in the pressurized chamber, same conditions): surprisingly superior
- pERG amplitudes vs baseline (statistical significance) ([4]; CBN high dose, 50 μM IVT, days 14 and 21): statistically significant difference in disease induction; also recorded: Statistically significant impairment of RGC function
- pERG amplitude (mean ± SEM), BASELINE ([4]; CBN high dose, 50 μM, IVT day 0, 7 and 15, baseline (before lasering)): 3.83 μV and 3.8 ± 0.4 μV
- pERG amplitude (mean ± SEM), DAY 7 [4, 7]: 3.6 ± 0.6 μV
- pERG amplitude (mean ± SEM), DAY 14 [4, 7]: 1.87 μV and 1.9 ± 0.3 μV
- pERG amplitude (mean ± SEM), DAY 21 [4, 7]: 2.19 μV and 2.2 ± 0.4 μV
- pERG amplitude reduction compared to baseline value, Day 7 ([4]; CBN high dose, 50 μM, IVT): −6.4%
- pERG amplitude reduction compared to baseline value, Day 14 ([4]; CBN high dose, 50 μM, IVT, **p<0.01 vs baseline): −51.2** %
- pERG amplitude reduction compared to baseline value, Day 21 ([4]; CBN high dose, 50 μM, IVT, *p<0.05 vs baseline): −42.9* %
- neuroprotective effect on RGCs ([4]; CBN low dose of 5 μM final concentration inside the eye): confers neuroprotective effect on RGCs similar to ALPHAGAN
- pERG amplitudes vs baseline (statistical significance) ([4]; CBN low dose, 5 μM final concentration inside the eye, follow-up days 14 and 21): did not differ significantly from the baseline
- pERG amplitude (mean ± SEM), BASELINE ([4]; CBN low dose, 5 μM, IVT day 0, 7 and 15, baseline (before lasering)): 3.3 ± 0.3 μV
- pERG amplitude (mean ± SEM), DAY 7 [4, 8]: 3.2 ± 0.5 μV
- pERG amplitude (mean ± SEM), DAY 14 [4, 8]: 2.3 ± 0.2 μV
- pERG amplitude (mean ± SEM), DAY 21 [4, 8]: 2.2 ± 0.3 μV
- pERG amplitude reduction compared to baseline value, Day 7 ([4]; CBN low dose, 5 μM, IVT): −3.7%
- pERG amplitude reduction compared to baseline value, Day 14 ([4]; CBN low dose, 5 μM, IVT): −31.2%
- pERG amplitude reduction compared to baseline value, Day 21 ([4]; CBN low dose, 5 μM, IVT): −31.6%

Compound: C=C(C)c1ccc(C)cc1-c1c(O)cc(CCCCC)cc1O [CBND]
- neuroprotection (Cell Death % vs Normal Pressure Vehicle Control) ([3]; 0.5 μM, 1.5 μM and 5 μM): absence of significant neuroprotection
- toxicity when in contact with neurons ([1]; concentration of about 1.5 μM): high toxicity
- toxicity when in contact with neurons ([1]; concentration of about 5 μM): high toxicity

Compound: CCCCCc1cc(O)c(C/C=C(\C)CCC=C(C)C)c(O)c1 [CBG, cannabigerol]
- toxicity when in contact with neurons ([1]; concentration of about 0.5 μM): high toxicity
- toxicity when in contact with neurons ([1]; concentration of about 1.5 μM): high toxicity
- toxicity when in contact with neurons ([1]; concentration of about 5 μM): high toxicity
